The values below come from patent US11879140B2, “P21 mRNA targeting DNAzymes” (1E Therapeutics Ltd., priority 2020, dated 2024).

The test system of the first data set is human p21 mRNA. Briefly: In vitro cleavage assay of human p21 mRNA. It counts as biochemical. Conditions: in vitro cleavage of p21 mRNA (SEQ ID NO: 1); RNA substrate 500 nM, 37° C. 60 min, agarose gel. An excerpt:
Total RNA was isolates from senescent IMR-90 cells using Nucleospin® RNA kit (Macherey-Nagel™). cDNA was synthesized with gene-specific reverse primers using M-MLV Reverse Transcriptase (Promega), according to the manufacturer's protocol. To generate template for in vitro transcription (IVT) reaction, the cDNA was PCR amplified using KAPA Taq EXtra HotStart® ReadyMix™ PCR Kit (R&D). PCR product was run on 1.5% agarose TAE gel, the correct band size was cut and DNA was cleaned using Wizard® SV Gel and PCR Clean-Up System kit (Promega). IVT was performed using HiScribe™ T7 High Yield RNA Synthesis Kit (NEB). Samples were then treated with DNase I (New England Biolabs) and incubated for 15 minutes at 37° C. IVT product was run on 1.5% agarose TBE gel, the correct band size was cut and RNA was cleaned using QIAquick® Gel Extraction Kit (Qiagen). See primer sequences in Table 1, below.
RNA substrate was diluted with Molecular Biology Grade Water (Biological Industries) and used in in vitro cleavage assay. A 20 μl reaction system comprising RNA substrate (final concentration 500 nM), 2 μl 10× reaction buffer (50 mM Tris-HCl pH 7.4, 100 mM NaCl, 10 mM MgCl2) and 1 μl DNAzyme (10 μM) (as depicted in Table 2, below) was mixed. Reactions were incubated at 37° C. for 60 min. 2×RNA L.D. (Thermo Fisher) was added to each sample. Samples were heated at 70° C. for 30 sec, centrifuged and loaded onto 1.5% agarose TBE gels. Quantification was performed using Image Lab software (Bio Rad).
In the case of “DNAzyme 1947: SEQ ID NO: 69: GCTGGACGAggctagctacaacgaTTGAGGGGC (DNA GCTGGACGAGGCTAGCTACAACGATTGAGGGGC; DNA, backbone and methylation of C not given here)”, the Validated cleavage result is “validated for mediating cleavage of p21 mRNA”.

“DNAzyme 1976: SEQ ID NO: 71: GGGGAGGGAggctagctacaacgaGGGGTGGAT (DNA GGGGAGGGAGGCTAGCTACAACGAGGGGTGGAT; DNA, backbone and methylation of C not given here)”: the Validated cleavage entry is listed as “validated for mediating cleavage of p21 mRNA”. As to “DNAzyme 857: SEQ ID NO: 34: GCAGGCTTtccgagccggacgaTGTGGGCGG (GCAGGCTTTCCGAGCCGGACGATGTGGGCGG; DNA, backbone and methylation of C not given here)”, the Validated cleavage entry is reported as “validated for mediating cleavage of p21 mRNA”. The same measure, in the same setting: the same measure for “DNAzyme 1736: SEQ ID NO: 58: CCATTGAGtccgagccggacgaGGGGGTGGG (DNA CCATTGAGTCCGAGCCGGACGAGGGGGTGGG; DNA, backbone and methylation of C not given here)”: “validated for mediating cleavage of p21 mRNA”; for “DNAzyme 1851: SEQ ID NO: 64: GTGCCACCAggctagctacaacgaATGGGACCC (DNA GTGCCACCAGGCTAGCTACAACGAATGGGACCC; DNA, backbone and methylation of C not given here)”: “validated for mediating cleavage of p21 mRNA”. Same read-out and setting: the same measure for “DNAzyme 1854: SEQ ID NO: 65: CCTGTGCCAggctagctacaacgaCACATGGGA (DNA CCTGTGCCAGGCTAGCTACAACGACACATGGGA; DNA, backbone and methylation of C not given here)”: “validated for mediating cleavage of p21 mRNA”. Still for that read-out and setting: the same measure for “DNAzyme 1252: SEQ ID NO: 42: GGGGGTGAAggctagctacaacgaTTCATAACC (DNA GGGGGTGAAGGCTAGCTACAACGATTCATAACC; DNA, backbone and methylation of C not given here)”: “validated for mediating cleavage of p21 mRNA”; for “DNAzyme 1991: SEQ ID NO: 74: AAAGTGCAAggctagctacaacgaGAACTGGGG (DNA AAAGTGCAAGGCTAGCTACAACGAGAACTGGGG; DNA, backbone and methylation of C not given here)”: “validated for mediating cleavage of p21 mRNA”; for “DNAzyme 1786: SEQ ID NO: 60: GAGGTAGAAggctagctacaacgaTAGGGTGCC (DNA GAGGTAGAAGGCTAGCTACAACGATAGGGTGCC; DNA, backbone and methylation of C not given here)”: “validated for mediating cleavage of p21 mRNA”.

Turning to “DNAzyme 1116: SEQ ID NO: 41: AAAGGAGAAggctagctacaacgaACGGGAUGA (DNA AAAGGAGAAGGCTAGCTACAACGAACGGGAUGA; DNA, backbone, methylation of C and T or U not given here)”, the Validated cleavage entry was “validated for mediating cleavage of p21 mRNA”. Still for that read-out and setting: the same measure for “DNAzyme 1524: SEQ ID NO: 48: GAGGGGCCAggctagctacaacgaGAGGGCAGG (DNA GAGGGGCCAGGCTAGCTACAACGAGAGGGCAGG; DNA, backbone and methylation of C not given here)”: “validated for mediating cleavage of p21 mRNA”; for “DNAzyme 1987: SEQ ID NO: 73: TGCAATGAAggctagctacaacgaTGGGGAGGG (DNA TGCAATGAAGGCTAGCTACAACGATGGGGAGGG; DNA, backbone and methylation of C not given here)”: “validated for mediating cleavage of p21 mRNA”; for “DNAzyme 1003: SEQ ID NO: 37: GCCAGAGGtccgagccggacgaGGGGGGCAG (DNA GCCAGAGGTCCGAGCCGGACGAGGGGGGCAG; DNA, backbone and methylation of C not given here)”: “validated for mediating cleavage of p21 mRNA”. Still for that read-out and setting: for “DNAzyme 354: SEQ ID NO: 23: CGGTTCTGAggctagctacaacgaATGGCGCCT (DNA CGGTTCTGAGGCTAGCTACAACGAATGGCGCCT; DNA, backbone and methylation of C not given here)” the value was “validated for mediating cleavage of p21 mRNA”.

The subject of the next data set is senescent human IMR-90 fibroblast cells.
Assay: not given
Settings: not given
The data set is classed as cell-based. As to the method:
Human IMR-90, BJ, WI-38 fibroblasts and REC epithelial cells were obtained from ATCC and grown at 5% oxygen. IMR-90 and REC cells were maintained in DMEM medium comprising 100 units per ml of penicillin, […] of streptomycin and 10% fetal bovine serum. BJ and WI-38 cells were maintained in EMEM medium comprising 100 units per ml of penicillin, […] of streptomycin, 10% fetal bovine serum, 1% Pyruvate, 1% L-Glutamine, mLFs were isolated according to standard procedures [Seluanov, A., et al. J Vis Exp (2010) (44):2033] and grown at 5% oxygen. Cells were maintained in EMEM medium comprising 100 units per ml of penicillin, […] of streptomycin and 15% fetal bovine serum.
DNA damage induced senescence (DIS) was induced by etoposide treatment (E1383, Sigma) at a concentration of […] for IMR-90, BJ, and WI-38, 16 μM for mLF and 12.5 μM for REC for a duration of 48 hours. Cells acquired the senescence phenotype 7 days post treatment (determined by SA-beta-gal staining).
Oncogene Induced Senescence (OIS) was induced by means of retroviral infection with H-RasG12 (pLNCX2) at 5% oxygen. Retroviruses were packaged, and infections were performed as described below.
Replicative Induced Senescence (RIS) was induced by long-term passaging of the cells in tissue culture. Cells acquired the senescence phenotype after 40 population doublings.
Primary target cells (IMR-90, BJ, […]) were plated in 24-well plates at 100,000 cells per well. Cells were transfected with different concentrations of DNAzymes (as depicted in Table 2, below) using Lipofectamine™ 2000 (Invitrogen) according to manufacturer instructions. The percentage of survival was determined based on quantification of remaining adherent cells using PrestoBlue® reagent (A13262, Life Technologies Ltd.) relative to Lipofectamine™ only control and compared to Scramble DNAzyme (Dz_Scramble) [Scramble Arm (Scr A) sequence: ATCTTCCTFggctagctacaacgaCGCCTCTCC, SEQ ID NO: 5, or Scramble catalytic core (Scr B) sequence: AGGAGAACAacagtaactggcgacGGGATGAGG, SEQ ID NO: 86] treated cells, 3-6 days following transfection.
For “2215 (DNA GAGAGAAAAGGCTAGCTACAACGAAGTCCAGGC; chemistry not given here) [compound 2215]”, the Validated cytotoxicity entry is on record as “+”. On the same count and under the same terms, the same measure for “835 (DNA AGGGCTTCTCCGAGCCGGACGACTTGGAGAA; chemistry not given here) [compound 835]”: “+”; for “1967 (DNA TGGGGTGGAGGCTAGCTACAACGAGAGGAAGGT; chemistry not given here) [compound 1967]”: “+”. Same read-out and setting: the same measure for “1602 (DNA CTGGGGCTTCCGAGCCGGACGATCAAAAGGT; chemistry not given here) [compound 1602]”: “+”. Regarding “1504 (DNA GGGGTGGTTCCGAGCCGGACGAGCTCCAGGA; chemistry not given here) [compound 1504]”, the Validated cytotoxicity entry is reported as “+”.

Take “266 (DNA GTCTGTCTTCCGAGCCGGACGATGAATACTC; chemistry not given here) [compound 266]”: the Validated cytotoxicity entry is recorded as “+”. On to “1742 (DNA TCCAGTCCAGGCTAGCTACAACGATGAGCTGGG; chemistry not given here) [compound 1742]”, for which the Validated cytotoxicity result was “+”.

For the substance “394 (DNA AGGCCTTGTCCGAGCCGGACGAGCCGCATGG; chemistry not given here) [compound 394]”, the Validated cytotoxicity entry was “+”.

“1991 (DNA AAAGTGCAAGGCTAGCTACAACGAGAACTGGGG; chemistry not given here) [compound 1991]”: the Validated cytotoxicity result was “+”. Take “857 (DNA GCAGGCTTTCCGAGCCGGACGATGTGGGCGG; chemistry not given here) [compound 857]”: the Validated cytotoxicity result is reported as “+”. In the case of “174 (DNA GCAAAGAAAGGCTAGCTACAACGAGACTATAGT; chemistry not given here) [compound 174]”, the Validated cytotoxicity entry is “+”. Same read-out and setting: the same measure for “1418 (DNA AGCTCAGCTCCGAGCCGGACGATAGGCTGTG; chemistry not given here) [compound 1418]”: “+”; for “1800 (DNA TGCTTGAGTCCGAGCCGGACGAGCCTGAGGT; chemistry not given here) [compound 1800]”: “+”; for “1252 (DNA GGGGGTGAAGGCTAGCTACAACGATTCATAACC; chemistry not given here) [compound 1252]”: “+”.

Turning to “290 (DNA AGGGGAGGAGGCTAGCTACAACGATTGACGAGT; chemistry not given here) [compound 290]”, the Validated cytotoxicity result is given as “+”. Still for that read-out and setting: for “2235 (DNA ACCAGGACAGGCTAGCTACAACGAATGGGGAGC; chemistry not given here) [compound 2235]” the value was “+”; for “1455 (DNA AGGGGGGTAGGCTAGCTACAACGACAAGAGCCA; chemistry not given here) [compound 1455]”, “+”.
